In ChEMBL document CHEMBL1156829 (Proc Natl Acad Sci U S A, 2008):

Experiments:
[1] = NOVARTIS: Cytotoxicity against human hepatocellular carcinoma cell line (Huh7); assay type: toxicity, cell-based, Huh-7; details: Huh7 cells (hepatocellular carcinoma cell line)
[2] = test system: Plasmodium falciparum; assay: NOVARTIS: Inhibition of Plasmodium falciparum W2 (drug-resistant) proliferation in erythrocyte-based infection assay; assay type: functional, organism-based; details: Plasmodium falciparum, W2; read-out: EC50
[3] = test system: Plasmodium falciparum; assay: NOVARTIS: Inhibition of Plasmodium falciparum 3D7 (drug-susceptible) proliferation in erythrocyte-based infection assay; assay type: functional, organism-based; details: Plasmodium falciparum, 3D7

Row | SMILES | CC50 [1] [µM] | EC50 [2] [nM] | EC50 [3] [nM]
1 | CCOc1ccccc1C=NNc1nc(Nc2ccccc2)nc(Nc2ccccc2)n1 | > 10 | > 1250 | 2050
2 | CCOc1ccc(-n2cc(-c3ccccc3)c3c(SCc4cc(C)ccc4C)ncnc32)cc1 | > 10 | > 1250 | 2010
3 | COc1ccc(S(=O)(=O)NCC2CCC(C(=O)NCC(OC)OC)CC2)cc1 (configuration not stated) | > 10 | > 1250 | > 1180
4 | COc1ccc(CN2CC(=O)N(c3ccc(Cl)cc3)C2=S)cc1OC | > 10 | > 1250 | > 1180
5 | COc1ccc([C@@H]2C[C@H](OC(=O)c3ccc4c(c3)OCO4)C(=O)N2C)cc1 | > 10 | > 1250 | 1180
6 | NC(=O)/C(=C\c1cccc2ccccc12)NC(=O)c1ccccc1 | > 10 | > 1250 | > 1140
7 | CN(C)c1ccc(C=NNc2nc(N)nc(N)n2)cc1 | > 10 | > 1250 | 2000
8 | O=C(C1CC=CCC1)N1CCCC(c2ncncc2-c2ccncc2)C1 (configuration not stated) | > 10 | > 1250 | 1370
9 | CCC(c1nc2ccccc2c(=O)n1CC)N1CCN(C(=O)Nc2ccccc2C(F)(F)F)CC1 (configuration not stated) | > 10 | > 1250 | 1300
10 | O=C(NC(CN1CCCC1)c1ccccc1)C1CCCCN1S(=O)(=O)c1ccccc1 (configuration not stated) | > 10 | 1260 | 632
11 | N#CC(c1ccc(C(F)(F)F)cc1)c1ccc2c(C(F)(F)F)cc(C(F)(F)F)nc2n1 (configuration not stated) | 2.51 | 316 | 413
12 | Oc1ccc(-c2cncc(NCc3ccccc3)n2)cc1 | > 10 | > 1250 | 1750
13 | CC(C)CN(CC(O)CN(CCN1CCOCC1)S(=O)(=O)Cc1ccccc1)C(=O)C1CCCN1C(=O)OC(C)(C)C (configuration not stated) | > 10 | > 1250 | > 1130
14 | O=C1OC(c2ccccc2)=NC1=C(Cl)Cl | > 10 | > 1250 | > 1160
15 | Cc1ccc2nc(-c3ccc(NC(=O)c4ccc(S(=O)(=O)N5CC(C)CC(C)C5)cc4)cc3)sc2c1 (configuration not stated) | > 10 | > 1250 | 1320
16 | COc1ccc(CCNC(=O)c2cc(S(=O)(=O)N3CC(C)CC(C)C3)ccc2Sc2ccc(F)cc2)cc1OC (configuration not stated) | > 10 | 1260 | 1050
17 | CC(=NOC(=O)c1ccco1)c1cnccn1 | > 10 | > 1250 | 1250

Row | SMILES | CC50 [1] [µM] | EC50 [2] [nM] | EC50 [3] [nM]
18 | CC1CC(C)CN(S(=O)(=O)c2ccc(C(=O)Nc3ccc(-c4nc5ccccc5o4)cc3)cc2)C1 (configuration not stated) | > 10 | > 1250 | 1200
19 | Cc1nc(Oc2ccc3ccc(=O)oc3c2)c2c3c(sc2n1)CCCCC3 | > 10 | > 1250 | 2300
20 | COc1ccc(-n2nc(C(=O)NCC(=O)NCCCN3CCOCC3)c3ccccc3c2=O)cc1Cl | > 10 | > 1250 | 1260
21 | COC(=O)C1=C(C(=O)OC)SC(=C2C(=S)C(C)(C)Nc3cc(C)ccc32)S1 | > 10 | > 1250 | > 1140
22 | Cc1ccc(-n2c(SCc3cc(=O)n4ccccc4n3)nc3ccsc3c2=O)cc1C | > 10 | > 1250 | > 1160
23 | O=C(O)c1ccc(C=NNc2ccc([N+](=O)[O-])cc2)cc1 | > 10 | > 1250 | > 1160
24 | COC(=O)c1c(S(=O)(=O)N2CCN(C)CC2)sc2c1CCN(CCCc1ccccc1)C2 | > 10 | 1260 | 1420
25 | COc1ccc(Cl)cc1-n1c(-c2cccnc2)n[nH]c1=S | > 10 | > 1250 | 1870
26 | COCCNCc1cc2cc3c(cc2n(Cc2cccc(F)c2)c1=O)OCO3 | > 10 | 1270 | > 1250
27 | CCC(C)N(CCC(=O)N1CCN(Cc2ccccc2)CC1)C(=O)Nc1cccc(Cl)c1Cl (configuration not stated) | > 8.39 | > 1060 | > 1560
28 | O=C1c2ccccc2-c2nc3ccc(C(F)(F)F)cc3nc21 | > 10 | 1260 | 1140
29 | COc1cccc(N2C(=O)/C(=C/c3cccnc3)SC2=S)c1 | > 10 | > 1250 | > 1140
30 | O=C(COc1ccccc1)Nc1nccs1 | > 10 | 1260 | > 1250
31 | O=C(NN=Cc1ccc(Br)cc1)c1ccco1 | > 100 | > 12500 | 11400
32 | CC(NC(=O)Cc1ccc(F)cc1)C(c1cccs1)N1CCOCC1 (configuration not stated) | > 10 | > 1250 | 2010
33 | CCOc1ccc(Nc2nc(N3CCCCC3)nc(N3CCCCC3)n2)cc1 | > 10 | > 1250 | 1190
34 | CC1(C)CN=C(N2CCN(CC(O)COc3ccc(OCC(O)CN4CCN(C5=NCC(C)(C)S5)CC4)cc3)CC2)S1 (configuration not stated) | > 10 | > 1250 | 2420
